Source: patent publication US20110213179A1, “METHOD OF EVALUATING EVENNESS OF SUPLATAST TOSILATE CRYSTAL, EVEN CRYSTAL, AND PROCESS FOR PRODUCING THE SAME” (TAIHO PHARMACEUTICAL CO., LTD., priority 2004, published 2011)

Test: Stability test: crystals stored at 60° C. for three months, amount of decomposition products
Assay type: physicochemical
Description: Suplatast tosilate crystals of the present invention produced in Examples 3 and 4 (Lots A and B) and first-form suplatast tosilate crystals produced through the method described in Japanese Patent Publication (kokoku) No. 1991-70698 (Lots C, D, and E) (1.0 g for each Lot) were stored at 60° C. for three months for stability measurement. For reference, second-form suplatast tosilate crystals produced through the method described in JP-A-1995-252213 (Lot F) and third-form suplatast tosilate crystals produced through the method described in WO 02/083633 (Lot G) were subjected to stability measurement in a manner similar to that described above.
As is clear from Table 1, all the first-form crystals produced through the conventionally known production method undergo decomposition, but the crystals produced through the production method of the present invention undergo virtually no decomposition and are stable.

| SMILES | Amount (%) of suplatast tosilate decomposition products produced at 60° C.: Decomposition product 2 (1 month) [%] | Amount (%) of suplatast tosilate decomposition products produced at 60° C.: Decomposition product 3 (1 month) [%] | Amount (%) of suplatast tosilate decomposition products produced at 60° C.: Decomposition product 1 (1 month, p-toluenesulfonate) [%] | Amount (%) of suplatast tosilate decomposition products produced at 60° C.: Total amount of decomposition products (1 month, p-toluenesulfonate) [%] | Amount (%) of suplatast tosilate decomposition products produced at 60° C.: Decomposition product 1 (2 months, p-toluenesulfonate) [%] | Amount (%) of suplatast tosilate decomposition products produced at 60° C.: Decomposition product 2 (2 months, p-toluenesulfonate) [%] | Amount (%) of suplatast tosilate decomposition products produced at 60° C.: Decomposition product 3 (2 months, p-toluenesulfonate) [%] | Amount (%) of suplatast tosilate decomposition products produced at 60° C.: Total amount of decomposition products (2 months, p-toluenesulfonate) [%] | Amount (%) of suplatast tosilate decomposition products produced at 60° C.: Decomposition product 1 (3 months, p-toluenesulfonate) [%] | Amount (%) of suplatast tosilate decomposition products produced at 60° C.: Decomposition product 2 (3 months, p-toluenesulfonate) [%] | Amount (%) of suplatast tosilate decomposition products produced at 60° C.: Decomposition product 3 (3 months, p-toluenesulfonate) [%] | Amount (%) of suplatast tosilate decomposition products produced at 60° C.: Total amount of decomposition products (3 months, p-toluenesulfonate) [%] |
| --- | --- | --- | --- | --- | --- | --- | --- | --- | --- | --- | --- | --- |
| CCOCC(O)COc1ccc(NC(=O)CC[S+](C)C)cc1.Cc1ccc(S(=O)(=O)[O-])cc1 (racemic) [First-form crystals Lot C, (±)-[2-[4-(3-ethoxy-2-hydroxypropoxy)phenylcarbamoyl]ethyl]dimethylsulfonium p-toluenesulfonate] | 0.0 | 0.0 | 0.1 | 0.1 | 0.6 | 0.3 | 0.2 | 1.1 | 1.3 | 0.4 | 0.4 | 2.1 |
| CCOCC(O)COc1ccc(NC(=O)CC[S+](C)C)cc1.Cc1ccc(S(=O)(=O)[O-])cc1 (racemic) [First-form crystals Lot D, (±)-[2-[4-(3-ethoxy-2-hydroxypropoxy)phenylcarbamoyl]ethyl]dimethylsulfonium p-toluenesulfonate] | 0.0 | 0.0 | 0.0 | 0.0 | 0.4 | 0.2 | 0.1 | 0.7 | 0.9 | 0.3 | 0.3 | 1.5 |
| CCOCC(O)COc1ccc(NC(=O)CC[S+](C)C)cc1.Cc1ccc(S(=O)(=O)[O-])cc1 (racemic) [First-form crystals Lot E, (±)-[2-[4-(3-ethoxy-2-hydroxypropoxy)phenylcarbamoyl]ethyl]dimethylsulfonium p-toluenesulfonate] | 0.0 | 0.0 | 0.0 | 0.0 | 0.3 | 0.1 | 0.1 | 0.5 | 0.9 | 0.2 | 0.3 | 1.4 |

Continued, values first:

| Amount (%) of suplatast tosilate decomposition products produced at 60° C.: Decomposition product 2 (1 month) [%] | Amount (%) of suplatast tosilate decomposition products produced at 60° C.: Decomposition product 3 (1 month) [%] | Amount (%) of suplatast tosilate decomposition products produced at 60° C.: Decomposition product 1 (1 month, p-toluenesulfonate) [%] | Amount (%) of suplatast tosilate decomposition products produced at 60° C.: Total amount of decomposition products (1 month, p-toluenesulfonate) [%] | Amount (%) of suplatast tosilate decomposition products produced at 60° C.: Decomposition product 1 (2 months, p-toluenesulfonate) [%] | Amount (%) of suplatast tosilate decomposition products produced at 60° C.: Decomposition product 2 (2 months, p-toluenesulfonate) [%] | Amount (%) of suplatast tosilate decomposition products produced at 60° C.: Decomposition product 3 (2 months, p-toluenesulfonate) [%] | Amount (%) of suplatast tosilate decomposition products produced at 60° C.: Total amount of decomposition products (2 months, p-toluenesulfonate) [%] | Amount (%) of suplatast tosilate decomposition products produced at 60° C.: Decomposition product 1 (3 months, p-toluenesulfonate) [%] | Amount (%) of suplatast tosilate decomposition products produced at 60° C.: Decomposition product 2 (3 months, p-toluenesulfonate) [%] | Amount (%) of suplatast tosilate decomposition products produced at 60° C.: Decomposition product 3 (3 months, p-toluenesulfonate) [%] | Amount (%) of suplatast tosilate decomposition products produced at 60° C.: Total amount of decomposition products (3 months, p-toluenesulfonate) [%] | SMILES |
| --- | --- | --- | --- | --- | --- | --- | --- | --- | --- | --- | --- | --- |
| 0.0 | 0.0 | 0.0 | 0.0 | 0.0 | 0.0 | 0.0 | 0.0 | 0.0 | 0.0 | 0.0 | 0.0 | CCOCC(O)COc1ccc(NC(=O)CC[S+](C)C)cc1.Cc1ccc(S(=O)(=O)[O-])cc1 (racemic) [Invention crystals (Ex. 3), (±)-[2-[4-(3-ethoxy-2-hydroxypropoxy)phenylcarbamoyl]ethyl]dimethylsulfonium p-toluenesulfonate] |
| 0.0 | 0.0 | 0.0 | 0.0 | 0.0 | 0.0 | 0.0 | 0.0 | 0.0 | 0.0 | 0.0 | 0.0 | CCOCC(O)COc1ccc(NC(=O)CC[S+](C)C)cc1.Cc1ccc(S(=O)(=O)[O-])cc1 (racemic) [Invention crystals (Ex. 4), (±)-[2-[4-(3-ethoxy-2-hydroxypropoxy)phenylcarbamoyl]ethyl]dimethylsulfonium p-toluenesulfonate] |
| 0.0 | 0.0 | 0.0 | 0.0 | 0.0 | 0.0 | 0.0 | 0.0 | 0.1 | 0.1 | 0.0 | 0.2 | CCOCC(O)COc1ccc(NC(=O)CC[S+](C)C)cc1.Cc1ccc(S(=O)(=O)[O-])cc1 (racemic) [Second-form crystals (ref.), (±)-[2-[4-(3-ethoxy-2-hydroxypropoxy)phenylcarbamoyl]ethyl]dimethylsulfonium p-toluenesulfonate] |
| 0.0 | 0.0 | 0.0 | 0.0 | 0.0 | 0.0 | 0.0 | 0.0 | 0.0 | 0.0 | 0.0 | 0.0 | CCOCC(O)COc1ccc(NC(=O)CC[S+](C)C)cc1.Cc1ccc(S(=O)(=O)[O-])cc1 (racemic) [Third-form crystals (ref.), (±)-[2-[4-(3-ethoxy-2-hydroxypropoxy)phenylcarbamoyl]ethyl]dimethylsulfonium p-toluenesulfonate] |
